# Where no end group is shown, it is not given here. [ ]: non-standard residue; d: D form. The star is where a group is joined. aminomethylferrocene = [Fe+2].c1cc[c-](CN*)c1.c1cc[cH-]c1; Ava = NCCCCC(=O)O
# Key:
# [1] = tested on: cathepsin B in human serum; experiment: Electrochemical (ACV) proteolysis of peptide-Fc on Au MEA by diluted human serum, with and without spiked rhCB; format: biochemical
# Procedure: Electrochemical Experiments. Electrochemical experiments were performed on a specially designed electrochemical cell mounted on a large copper block for temperature control by circulating thermostatic silicone liquid through the internal channels. The thermal circulator (Julabo, Allentown, PA) was set to achieve a temperature of 38.6° C. Two buffer solutions, 0.5×PB (pH=7.4) and 25 mM MES (pH=5.0), were used. In some experiments, the rhCB was activated by incubation in 25 mM MES buffer (pH=5.0) containing 5 mM DTT for 15 min. About 10 uL activated cathepsin B solution was added to the electrochemical cell containing 815 uL buffer solution (i.e., 0.5×PB with pH=7.4) as the electrolyte. Fc signal on the Au surface was detected by alternating current voltammetry (ACV) with an AC frequency of 300 Hz and a voltage amplitude of 100 mV on a DC ramp from −0.45 V to 0.20 V vs. MSE. Electrochemical measurements were performed using an IVIUM n-Stat potentiostat (Eindhoven, The Netherlands), which allows measurement of up to ten independent working electrodes simultaneously versus a common MSE reference electrode and a common Pt coil counter electrode.
# Electrochemical Detection of Cathepsin B Activity in Human Serum. To assess the activity of cathepsin B in HS, we compared the kinetic proteolysis curves of 5% HS in 0.5×PB with and without activation by the electrochemical method. The 5% HS concentration is slightly higher than the 2.5% used in ELISA measurements to ensure that a clear exponential decay can be observed in electrochemical experiments. To minimize errors, three Au MEA chips were prepared side-by-side for three sets of experiments, i.e., (i) non-activated 5% HS in 0.5×PB, (ii) activated 5% HS in 0.5×PB, and (iii) the blank 0.5×PB. […] Based on equation (2), the concentration of the active form of cathepsin B in non-activated and activated sample (equivalent to 100% HS) can be calculated by: […]
# Electrochemical Assessment of Effective Cathepsin B Activity Spiked in Human Serum. […] The data were recorded over 8 channels of the peptide-Fc modified Au MEA simultaneously. […]
# cathepsin B = cathepsin B (Homo sapiens, UniProt P07858); parameters: purchased R&D Systems Inc. (Minneapolis, MN); settings: previous finding; cited from earlier work
Substance,"1/τ ([1]; activated 5% HS in 0.5×PB (DTT/MES), 8 channels)",1/τ ([1]; non-activated 5% HS in 0.5×PB spiked with 0.40 nM naturally active cathepsin B (1.0 nM non-activated rhCB)),1/τ ([1]; non-activated 5% HS in 0.5×PB spiked with 1.0 nM activated cathepsin B),cleavage site by cathepsin B (found previously) (cathepsin B)
H2N-(CH2)4-CO-Pro-Leu-Ala-Phe-Val-Ala-NH-CH2-Fc ([Ava]PLAFVA-aminomethylferrocene) [Peptide H-15],(33.2±3.0)×10^−4 s^−1,(12.99±1.66)×10^−4 s^−1,(68.4±7.53)×10^−4 s^−1,
H2N-(CH2)4-CO-Pro-Leu-Arg-Phe-Gly-Ala-NH-CH2-Fc ([Ava]PLRFGA-aminomethylferrocene) [Peptide H-3],,,,between the Gly-Ala residues and between the Phe-Gly residues
